Test results as given in US20170007561A1, “CONTEMPORANEOUS, HETEROGENEOUSLY-ORIENTED, MULTI-TARGETED THERAPEUTIC MODIFICATION AND/OR MODULATION OF DISEASE BY ADMINISTRATION OF SULFUR-CONTAINING, AMINO ACID-SPECIFIC SMALL MOLECULES” (BioNumerik Pharmaceuticals, Inc., priority 2014, published 2017).
Like-named read-outs stand apart in the source and are kept apart here.

How the values were obtained:
[1] = test system: mammalian thioredoxin reductase (TrxR); conditions: cited from earlier work
[2] = single oral dose of 100 mg to healthy volunteers; cited from earlier work
[3] = biological target: T1, bovine TrxR (Bos taurus, UniProt O62768); assay: TrxR NADPH oxidation assay without Trx (Reaction A); assay type: biochemical; conditions: TrxR alone + NADPH, no Trx
T1 construct: purchased American Diagnostica
T1 sequence (O62768 1-499): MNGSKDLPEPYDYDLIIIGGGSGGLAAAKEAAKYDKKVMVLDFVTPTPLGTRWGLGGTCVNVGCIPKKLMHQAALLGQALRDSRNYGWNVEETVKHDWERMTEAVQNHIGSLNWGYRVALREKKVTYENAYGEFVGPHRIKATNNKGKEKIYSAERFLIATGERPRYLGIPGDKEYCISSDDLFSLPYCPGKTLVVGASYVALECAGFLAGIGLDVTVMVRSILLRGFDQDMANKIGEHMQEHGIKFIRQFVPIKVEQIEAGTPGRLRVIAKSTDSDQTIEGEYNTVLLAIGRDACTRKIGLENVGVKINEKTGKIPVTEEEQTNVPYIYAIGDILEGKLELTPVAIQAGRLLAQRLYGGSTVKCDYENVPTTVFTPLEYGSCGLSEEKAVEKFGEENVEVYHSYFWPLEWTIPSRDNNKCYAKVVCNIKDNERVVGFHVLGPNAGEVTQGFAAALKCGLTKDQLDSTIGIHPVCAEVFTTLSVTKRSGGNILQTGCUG

[4] = biological target: T790M EGFR kinase (Homo sapiens, UniProt P00533, T790M); assay: EGFR kinase assay (ADP-glo, polyGT substrate), T790M mutant; assay type: biochemical; conditions: for IC50: read-out: IC50, inhibition of T790M EGFR kinase; for effect on Erlotinib inhibition of T790M EGFR kinase activity: heteroconjugate in combination with Erlotinib, 10 μM and/or 100 μM ATP
[5] = biological target: T2, glutathione reductase (GR) (Homo sapiens, UniProt P00390); conditions: cited from earlier work
T2 sequence (P00390 44-522): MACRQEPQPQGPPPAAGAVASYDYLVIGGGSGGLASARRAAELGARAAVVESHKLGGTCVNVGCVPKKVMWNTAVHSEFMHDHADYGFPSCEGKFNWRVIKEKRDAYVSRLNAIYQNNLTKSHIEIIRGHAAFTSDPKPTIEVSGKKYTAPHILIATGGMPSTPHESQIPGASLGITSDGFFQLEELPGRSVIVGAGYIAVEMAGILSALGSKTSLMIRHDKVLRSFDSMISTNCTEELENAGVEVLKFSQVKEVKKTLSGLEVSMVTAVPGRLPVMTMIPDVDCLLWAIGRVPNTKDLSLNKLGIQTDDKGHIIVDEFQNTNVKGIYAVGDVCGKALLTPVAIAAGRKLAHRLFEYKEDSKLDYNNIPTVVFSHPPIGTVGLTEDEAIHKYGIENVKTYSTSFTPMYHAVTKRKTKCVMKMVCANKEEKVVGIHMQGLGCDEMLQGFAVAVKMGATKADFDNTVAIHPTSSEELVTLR

[6] = test system: bovine brain microtubule protein (α-/β-tubulin); assay: Microtubule protein polymerization assay (OD350); assay type: biochemical; conditions: for protection against monoaquocisplatin-induced loss of microtubule protein polymerization: preincubated with monoaquocisplatin (36 μM), mesna or cysteine 200 μM; for effect on microtubule protein polymerization: sodium chloride 32 mM control
[7] = biological target: ErbB-2 (Homo sapiens, UniProt P04626); design: key: the “+” and “−” symbols signify the ability and inability to activate each of the ErbB receptors, respectively; the “+” and “−” symbols signify the ability and inability to activate each of the ErbB receptors, respectively; conditions: cited from earlier work
[8] = biological target: ErbB-4 (Homo sapiens, UniProt Q15303); design: key: the “+” and “−” symbols signify the ability and inability to activate each of the ErbB receptors, respectively; the “+” and “−” symbols signify the ability and inability to activate each of the ErbB receptors, respectively; conditions: cited from earlier work
ErbB-4, sequence (Q15303 26-1308, species assumed): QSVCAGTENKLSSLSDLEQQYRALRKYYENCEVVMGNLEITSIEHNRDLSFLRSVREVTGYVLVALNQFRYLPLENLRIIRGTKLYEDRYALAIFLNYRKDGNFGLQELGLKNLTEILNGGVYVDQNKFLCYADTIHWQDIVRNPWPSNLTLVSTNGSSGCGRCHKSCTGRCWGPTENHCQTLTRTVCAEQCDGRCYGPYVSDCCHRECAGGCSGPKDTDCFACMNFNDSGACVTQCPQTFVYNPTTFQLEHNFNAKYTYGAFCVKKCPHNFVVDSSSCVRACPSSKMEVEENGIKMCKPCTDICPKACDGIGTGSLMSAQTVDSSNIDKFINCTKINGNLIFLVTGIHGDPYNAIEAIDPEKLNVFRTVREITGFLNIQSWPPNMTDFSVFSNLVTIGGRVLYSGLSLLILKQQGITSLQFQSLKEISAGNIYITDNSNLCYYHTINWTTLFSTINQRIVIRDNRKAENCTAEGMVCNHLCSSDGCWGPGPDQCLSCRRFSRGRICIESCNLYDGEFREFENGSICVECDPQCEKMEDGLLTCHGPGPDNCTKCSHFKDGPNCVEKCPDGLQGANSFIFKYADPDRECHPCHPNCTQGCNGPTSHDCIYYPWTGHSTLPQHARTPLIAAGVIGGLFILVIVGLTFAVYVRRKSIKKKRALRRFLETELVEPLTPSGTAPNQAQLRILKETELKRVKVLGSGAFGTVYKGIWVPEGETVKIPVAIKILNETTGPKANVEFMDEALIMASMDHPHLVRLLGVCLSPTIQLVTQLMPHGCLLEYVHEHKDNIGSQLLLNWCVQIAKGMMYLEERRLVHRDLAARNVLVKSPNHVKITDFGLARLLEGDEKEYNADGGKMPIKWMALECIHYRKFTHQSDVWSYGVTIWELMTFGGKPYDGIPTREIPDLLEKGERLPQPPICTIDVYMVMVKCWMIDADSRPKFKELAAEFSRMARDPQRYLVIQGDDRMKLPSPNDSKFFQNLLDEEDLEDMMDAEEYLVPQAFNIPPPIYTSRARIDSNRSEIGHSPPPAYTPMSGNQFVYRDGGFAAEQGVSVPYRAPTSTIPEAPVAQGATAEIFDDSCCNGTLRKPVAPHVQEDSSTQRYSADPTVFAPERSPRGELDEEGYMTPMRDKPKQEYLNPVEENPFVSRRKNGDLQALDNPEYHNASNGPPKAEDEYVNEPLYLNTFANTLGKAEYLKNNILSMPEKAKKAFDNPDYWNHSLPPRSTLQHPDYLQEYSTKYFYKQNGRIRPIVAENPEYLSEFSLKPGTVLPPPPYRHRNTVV

[9] = biological target: ErbB-3 (Homo sapiens, UniProt P21860); design: key: the “+” and “−” symbols signify the ability and inability to activate each of the ErbB receptors, respectively; the “+” and “−” symbols signify the ability and inability to activate each of the ErbB receptors, respectively; conditions: cited from earlier work
[10] = biological target: ErbB-1 (Homo sapiens, UniProt P00533); conditions: cited from earlier work

For CC1=C(/C=C/C(C)=C/C=C/C(C)=C\C(=O)O)C(C)(C)CCC1 [13-cis-retinoic acid], the “Inhibition of TrxR” value [1] is listed as “irreversible inhibition of TrxR”.

In the case of C#Cc1cccc(Nc2ncnc3cc(OCCOC)c(OCCOC)cc23)c1 [Erlotinib, reference compound], the Cmax [2] is listed as 1390 ng/mL.

With NC(CSSCCS(=O)(=O)O)C(=O)NC(CCC(=O)O)C(=O)O (stereo not shown) [MSSCE, mesna-cysteinyl glutamate disulfide] the “NADPH Oxidation, Reaction A” value ([3]; disulfide 0.5 mM) was 0.3 ± 0.02 nmol/min/mL.

For NC(CSSCCS(=O)(=O)O)C(=O)NCC(=O)O (stereo not shown) [MSSCG, mesna-cysteinyl glycine disulfide], the “NADPH Oxidation, Reaction A” value ([3]; disulfide 0.5 mM) was 0.2 ± 0.04 nmol/min/mL.

With NC(CSSCCS(=O)(=O)O)C(=O)O (stereo not shown) [Mesna-Cysteine] the IC50 ([4]; 10 μM ATP) was 3760 ± 260 µM, the IC50 ([4]; 100 μM ATP) was 3030 ± 280 µM and the “effect on Erlotinib inhibition of T790M EGFR kinase activity” value (“effect on Erlotinib inhibition” for short) [4] was “effectively potentiated”.

For NC(CSSCCS(=O)(=O)O)C(=O)NC(CCC(=O)O)C(=O)O (stereo not shown) [Mesna-Cysteinylglutamate], the IC50 ([4]; 10 μM ATP) was 1090 ± 190 µM, the IC50 ([4]; 100 μM ATP) was 1050 ± 80 µM and the “effect on Erlotinib inhibition” value [4] was “effectively potentiated”.

In the case of NC(CSSCCS(=O)(=O)O)C(=O)NCC(=O)O (stereo not shown) [Mesna-Cysteinylglycine], the IC50 ([4]; 10 μM ATP) is reported as 510 ± 10 µM, the IC50 ([4]; 100 μM ATP) is reported as 410 ± 50 µM and the “effect on Erlotinib inhibition” value [4] is reported as “effectively potentiated”.

In the case of NC(CCC(=O)NC(CSSCCS(=O)(=O)O)C(=O)NCC(=O)O)C(=O)O (stereo not shown) [Mesna-Glutathione], the IC50 ([4]; 10 μM ATP) is reported as 1280 ± 290 µM, the IC50 ([4]; 100 μM ATP) is reported as 1170 ± 10 µM and the “effect on Erlotinib inhibition” value [4] is reported as “effectively potentiated”.

In the case of CS(=O)(=O)OCCCCOS(C)(=O)=O [busulfan], the “Inhibition of GR” value [5] is listed as “not GR” and the “Inhibition of TrxR” value [1] is listed as “irreversibly inhibited TrxR in a concentration- and time-dependent manner”.

In the case of N.N.O=C([O-])C1(C(=O)[O-])CCC1.[Pt+2] [carboplatin], the “Inhibition of GR” value [5] is given as “could not inhibit either TrxR or GR” and the “Inhibition of TrxR” value [1] is given as “could not inhibit either TrxR or GR”.

In the case of O=NN(CCCl)C(=O)NCCCl [carmustine], the “Inhibition of GR” value [5] is given as “can inhibit both GR and Trx” and the “Inhibition of TrxR” value [1] is given as “can inhibit both GR and Trx”.

For O=C(O)CCCc1ccc(N(CCCl)CCCl)cc1 [chlorambucil], the “Inhibition of GR” value [5] is listed as “not GR” and the “Inhibition of TrxR” value [1] is listed as “irreversibly inhibited TrxR in a concentration- and time-dependent manner”.

For N.N.[Cl][Pt][Cl] [cisplatin], the “Inhibition of GR” value [5] is listed as “not GR” and the “Inhibition of TrxR” value [1] is listed as “irreversibly inhibited TrxR”.

In the case of O=P1(N(CCCl)CCCl)NCCCO1 (stereo not shown) [cyclophosphamide], the “Inhibition of GR” value [5] is listed as “not GR” and the “Inhibition of TrxR” value [1] is listed as “irreversibly inhibited TrxR in a concentration- and time-dependent manner”.

With N[C@@H](CS)C(=O)O [cysteine, reference compound] the “effect alone on microtubule protein polymerization” value ([6]; in the absence of monoaquocisplatin) was “neither mesna nor cysteine alone (in the absence of monoaquocisplatin) had any effect”.

For COc1cccc2c1C(=O)c1c(O)c3c(c(O)c1C2=O)C[C@@](O)(C(C)=O)C[C@@H]3O[C@H]1C[C@H](N)[C@H](O)[C@H](C)O1 [daunorubicin], the “Inhibition of TrxR” value [1] is given as “not inhibitors of TrxR”.

With N[C@@H](CCC(=O)O)C(=O)O [glutamate, reference compound] the “protection against monoaquocisplatin-induced loss of microtubule protein polymerization” value [6] was “not seen”.

For NC(=O)CC[C@H](N)C(=O)O [glutamine, reference compound], the “protection against monoaquocisplatin-induced loss of microtubule protein polymerization” value [6] was “not seen”.

For O=P1(NCCCl)OCCCN1CCCl (stereo not shown) [ifosfamide], the “Inhibition of TrxR” value [1] is given as “inhibited TrxR”.

For N[C@@H](Cc1ccc(N(CCCl)CCCl)cc1)C(=O)O [melphalan], the “Inhibition of GR” value [5] is given as “not GR” and the “Inhibition of TrxR” value [1] is given as “irreversibly inhibited TrxR in a concentration- and time-dependent manner”.

For N.N.O.[Cl][Pt+] [monoaquocisplatin, reference compound], the “effect of extended exposure on microtubule protein polymerization” value ([6]; monoaquocisplatin 36 μM) was “loss of microtubule protein's ability to polymerize”.

For O=C1[O][Pt]2([NH][C@@H]3CCCC[C@H]3[NH]2)[O]C1=O [oxaliplatin], the “Inhibition of GR” value [5] is given as “not GR” and the “Inhibition of TrxR” value [1] is given as “irreversibly inhibited TrxR”.

With [Cl-].[Na+] [sodium chloride] the “effect on microtubule protein polymerization” value [6] was “did not inhibit” and the “effect on microtubule protein polymerization” value ([6]; listed as NaCl) was “no effect”.

For N.N.[Cl][Pt+2][Cl] [transplatin], the “Inhibition of GR” value [5] is given as “not GR” and the “Inhibition of TrxR” value [1] is given as “irreversibly inhibited TrxR”.

For “EGF: growth factor ligand of ErbB receptors”, the “ability to activate ErbB-2” value [7] is listed as “−”, the “ability to activate ErbB-4” value [8] is listed as “−” and the “ability to activate ErbB-3” value [9] is listed as “−”.

In the case of “HB-EGF: growth factor ligand of ErbB receptors”, the “ability to activate ErbB-2” value [7] is given as “−”, the “ability to activate ErbB-4” value [8] is given as “+” and the “ability to activate ErbB-3” value [9] is given as “−”. For the same molecule, the “ability to activate ErbB-1” value [10] was “+”.

For “Insulin: positive control disulfide substrate of Trx [reference compound]”, the “NADPH Oxidation, Reaction A” value ([3]; insulin 86 μM) was 0.3 ± .03 nmol/min/mL.

In the case of “TGF-α: growth factor ligand of ErbB receptors”, the “ability to activate ErbB-2” value [7] is listed as “−”, the “ability to activate ErbB-4” value [8] is listed as “−” and the “ability to activate ErbB-3” value [9] is listed as “−”.

For “amphiregulin: growth factor ligand of ErbB receptors”, the “ability to activate ErbB-2” value [7] is listed as “−”, the “ability to activate ErbB-4” value [8] is listed as “−” and the “ability to activate ErbB-3” value [9] is listed as “−”. The “ability to activate ErbB-1” value [10] was “+”.

In the case of “betacellulin: growth factor ligand of ErbB receptors”, the “ability to activate ErbB-2” value [7] is given as “−”, the “ability to activate ErbB-4” value [8] is given as “+” and the “ability to activate ErbB-3” value [9] is given as “−”. For the same molecule, the “ability to activate ErbB-1” value [10] was “+”.

For “epiregulin: growth factor ligand of ErbB receptors”, the “ability to activate ErbB-2” value [7] is listed as “−”, the “ability to activate ErbB-4” value [8] is listed as “+” and the “ability to activate ErbB-3” value [9] is listed as “−”. For the same molecule, the “ability to activate ErbB-1” value [10] was “+”.

In the case of neuregulin 1, the “ability to activate ErbB-2” value [7] is given as “−”, the “ability to activate ErbB-4” value [8] is given as “+” and the “ability to activate ErbB-3” value [9] is given as “+”. For the same molecule, the “ability to activate ErbB-1” value [10] was “−”.

B1: epigen: growth factor ligand of ErbB receptors (protein, UniProt Q6UW88 23-154, looked up)
Epigen: AAVTVTPPITAQQGNWTVNKTEADNIEGPIALKFSHLCLEDHNSYCINGACAFHHELEKAICRCFTGYTGERCEHLTLTSYAVDSYEKYIAIGIGVGLLLSGFLVIFYCYIRKRCLKLKSPYNVCSGERRPL
In the case of B1, the “ability to activate ErbB-2” value [7] is given as “−”, the “ability to activate ErbB-4” value [8] is given as “−” and the “ability to activate ErbB-3” value [9] is given as “−”. The “ability to activate ErbB-1” value [10] was “+”.
